In patent US20120122843A1, “Compounds and Their Use for Treatment of Amyloid Beta-Related Diseases” (ASTRAZENECA AB, priority 2010, published 2012):

How the values were obtained:
Aβ42 = Aβ42 release from HEK cells stably expressing APPswe (MSD electrochemiluminescence); assay type: cell-based, Human; conditions: 4-6 h incubation with test compound, Aβ42 secreted to cell medium
Method in brief: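 HEK cells stably expressing APPswe, plated 15–24 h, then given compound in fresh medium (diluted ×200 from compound plate) for 4–6 h at 37 °C. Secreted Aβ in medium measured by MSD electrochemiluminescence; total Aβ via 6E10 plus 4G8 antibodies, Aβ42 via specific antibody. Cytotoxicity checked by ATP content of lysate.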

Aβtotal = experiment: Total Aβ release from HEK cells stably expressing APPswe (MSD, 6E10 and 4G8 antibodies); assay type: cell-based; conditions: Homo sapiens, HEK293, 4-6 h incubation with test compound, total Aβ secreted to cell medium
Procedure: The level of activity of the compounds on Aβ formation was tested using the following method:
Compounds were diluted in 100% DMSO and stored at […] prior to use. Human Embryonic Kidney (HEK) cell line stably expressing APP with the Swedish mutation (APPswe) were cultured using Dulbecco's Modified Eagles medium (DMEM) supplied with […] glucose, Na-pyruvate and GlutaMAX with 10% FBS, 100 U/ml penicillin-streptomycin (PEST) respectively, 1× non-essential amino acids (NEAA), […] Hepes, 100 μg/ml Zeocine. Cells at about 80% confluence were washed with PBS, detached from culture flasks using 1× Trypsin/EDTA diluted in PBS, re-suspended in cell media and plated in 384-well poly-d-lysine coated cell culture plates at about 10000-15000 cells/well, in 25 μL cell media. Optionally, cryo-preserved cells (frozen and stored at −140° C. in 90% cell media and 10% DMSO) were thawed, washed and plated as above. Next the cells were incubated for 15-24 h at 37° C. and 5% CO2, after which cell medium was changed. Fresh medium containing test compound diluted ×200 from prepared compound plate was added to the cells before further incubation for 4-6 hours at 37° C. and 5% CO2. After incubation with test compound the amount of Aβ peptides, including Aβ42, Aβ40, Aβ39, Aβ38 and Aβ37, as well as total Aβ levels, secreted to cell medium was analyzed using the electrochemiluminescence assay technology from Meso Scale Discovery (MSD), in combination with specific antibodies raised against the different Aβ peptides. Aβ42, Aβ40 and Aβ38 antibodies were purchased from MSD and Aβ37 and Aβ39 were made in house. Total Aβ was measured using a combination of 6E10 and 4G8 anti Aβ antibodies from MSD. Potential cytotoxic effects of the compounds were usually assayed by measuring the ATP content (ViaLight) from cell lysate.

Notch = experiment: Release and translocation of Notch intracellular domain into the nucleus, HEK/AENotch cells (NICD immunostaining, ImageXpress); assay type: cell-based, Human; conditions: 3 μM Lactacystin, 4-6 h incubation, nucleus/cytosol NICD fluorescence ratio
Method in brief: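 HEK cells overexpressing a Notch1-ΔE-myc construct were plated for 15–24 h, then treated 4–6 h with compound (typically up to 25 μM, 0.5% DMSO) plus 3 μM Lactacystin. Fixed cells were immunostained for NICD, and the nuclear/cytosolic fluorescence ratio was imaged. Cytotoxicity was judged by nucleus area or cell number.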

[1] = Homo sapiens, HEK293, HEK cells expressing APPswe

IC50 (Aβ42; [1]) [nM]	IC50 (Aβtotal) [nM]	IC50 (Aβ42; HEK cells expressing APPswe) [nM]	Compound	IC50 (Notch; Homo sapiens) [nM]	IC50 (Notch) [nM]
7	> 1000	–	COc1nc(Nc2ccc3c(n2)OC(CCC(F)(F)F)CN(C)C3)ccc1-n1cnc(C)c1 (stereo not shown) [Example 28, [6-Methoxy-5-(4-methyl-imidazol-1-yl)-pyridin-2-yl]-[6-methyl-8-(3,3,3-trifluoro-propyl)-5,6,7,8-tetrahydro-9-oxa-1,6-diaza-benzocyclohepten-2-yl]-amine]	> 25000	–
22	9470	–	COc1nc(Nc2ccc3c(n2)OC(CC(CF)CF)CN(C)C3)ccc1-c1cnn(C)c1 (stereo not shown) [Example 31, [8-(3-Fluoro-2-fluoromethyl-propyl)-6-methyl-5,6,7,8-tetrahydro-9-oxa-1,6-diaza-benzocyclohepten-2-yl]-[6-methoxy-5-(1-methyl-1H-pyrazol-4-yl)-pyridin-2-yl]-amine]	> 7900	–
8	> 5000	–	COc1nc(Nc2ccc3c(n2)OC(CC(F)(F)F)CN(C)C3C)ccc1-c1cnn(C)c1 (single isomer, unassigned) [Example 33, N-(6-Methoxy-5-(1-methyl-1H-pyrazol-4-yl)pyridin-2-yl)-4,5-dimethyl-2-(2,2,2-trifluoroethyl)-2,3,4,5-tetrahydropyrido[3,2-f][1,4]oxazepin-8-amine]	> 25000	–
2	5460	–	COc1nc(Nc2ccc3c(n2)O[C@H](c2ccccc2)CN(C)C3)ccc1-c1cnc(C)o1 [Example 49, (2R)—N-[6-Methoxy-5-(2-methyloxazol-5-yl)-2-pyridyl]-4-methyl-2-phenyl-3,5-dihydro-2H-pyrido[3,2-f][1,4]oxazepin-8-amine]	2170	–
–	> 1000	4	COc1nc(Nc2ccc3c(n2)OC(C2CC(F)(F)C2)CN(C)C3)ccc1-c1cnn(C)c1 (single isomer, unassigned) [Example 37, 2-(3,3-Difluorocyclobutyl)-N-(6-methoxy-5-(1-methyl-1H-pyrazol-4-yl)pyridin-2-yl)-4-methyl-2,3,4,5-tetrahydropyrido[3,2-f][1,4]oxazepin-8-amine]	> 25000	–
10	> 25000	–	COc1nc(Nc2ccc3c(n2)OC(CC(CF)CF)CN(C)C3)ccc1-n1cnc(C)c1 (single isomer, unassigned; (+)) [Example 67, (+)-[8-(3-Fluoro-2-fluoromethyl-propyl)-6-methyl-5,6,7,8-tetrahydro-9-oxa-1,6-diaza-benzocyclohepten-2-yl]-[6-methoxy-5-(4-methyl-imidazol-1-yl)-pyridin-2-yl]-amine]	–	6230
7	> 5000	–	COc1nc(Nc2ccc3c(n2)OC(CC(CF)CF)CN(C)C3)ccc1-n1cnc(C)c1 (stereo not shown) [Example 32, [8-(3-Fluoro-2-fluoromethyl-propyl)-6-methyl-5,6,7,8-tetrahydro-9-oxa-1,6-diaza-benzocyclohepten-2-yl]-[6-methoxy-5-(4-methyl-imidazol-1-yl)-pyridin-2-yl]-amine]	> 7900	–
–	512	9	COc1nc(Nc2ccc3c(n2)OC(CC(F)(F)F)CN(C)C3)ccc1-c1cnn(C)c1 (single isomer, unassigned; (+)) [Example 4, (+)-N-(6-Methoxy-5-(1-methyl-1H-pyrazol-4-yl)pyridin-2-yl)-4-methyl-2-(2,2,2-trifluoroethyl)-2,3,4,5-tetrahydropyrido[3,2-f][1,4]oxazepin-8-amine]	> 25000	–
3	> 1000	–	COc1nc(Nc2ccc3c(n2)OC(CCC(F)(F)F)CN(C)C3)ccc1-n1cnc(C)c1 (single isomer, unassigned; (+)) [Example 61, (+)-[6-Methoxy-5-(4-methyl-imidazol-1-yl)-pyridin-2-yl]-[6-methyl-8-(3,3,3-trifluoro-propyl)-5,6,7,8-tetrahydro-9-oxa-1,6-diaza-benzocyclohepten-2-yl]-amine]	> 25000	–
13	1850	–	COc1nc(Nc2ccc3c(n2)OC(c2nc(C)cs2)CN(C)C3)ccc1-n1cnc(C)c1 (stereo not shown) [Example 12, N-(6-Methoxy-5-(4-methyl-1H-imidazol-1-yl)pyridin-2-yl)-4-methyl-2-(4-methylthiazol-2-yl)-2,3,4,5-tetrahydropyrido[3,2-f][1,4]oxazepin-8-amine]	> 25000	–
12	8720	–	COc1nc(Nc2ccc3c(n2)OC(CCC(F)(F)F)CN(C)C3)ccc1-c1cnn(C)c1 (stereo not shown) [Example 27, [6-Methoxy-5-(1-methyl-1H-pyrazol-4-yl)-pyridin-2-yl]-[6-methyl-8-(3,3,3-trifluoro-propyl)-5,6,7,8-tetrahydro-9-oxa-1,6-diaza-benzocyclohepten-2-yl]-amine]	16300	–
98	–	–	COc1nc(Nc2ccc3c(n2)O[C@H](c2ccccc2)CN(C)C3)ccc1-c1cn[nH]c1 [Example 56, (2R)—N-[6-Methoxy-5-(1H-pyrazol-4-yl)-2-pyridyl]-4-methyl-2-phenyl-3,5-dihydro-2H-pyrido[3,2-f][1,4]oxazepin-8-amine]	> 25000	–
–	–	15	COc1nc(Nc2ccc3c(n2)OC(C2CC(F)(F)C2)CN(C)C3)ccc1-c1cnn(C)c1 (single isomer, unassigned) [Example 38, 2-(3,3-Difluorocyclobutyl)-N-(6-methoxy-5-(1-methyl-1H-pyrazol-4-yl)pyridin-2-yl)-4-methyl-2,3,4,5-tetrahydropyrido[3,2-f][1,4]oxazepin-8-amine]	–	> 25000
–	–	9	COc1nc(Nc2ccc3c(n2)OC(c2ncc(C)s2)CN(C)C3)ccc1-n1cnc(C)c1 (single isomer, unassigned; (-)) [Example 65, (−)-N-(6-Methoxy-5-(4-methyl-1H-imidazol-1-yl)pyridin-2-yl)-4-methyl-2-(5-methylthiazol-2-yl)-2,3,4,5-tetrahydropyrido[3,2-f][1,4]oxazepin-8-amine]	> 25000	–
–	–	56	COc1nc(Nc2cc(C)c3c(n2)OC(C2CCCO2)CN(C)C3)ccc1-c1cnn(C)c1 (single isomer, unassigned) [Example 26, N-(6-Methoxy-5-(1-methyl-1H-pyrazol-4-yl)pyridin-2-yl)-4,6-dimethyl-2-(tetrahydrofuran-2-yl)-2,3,4,5-tetrahydropyrido[3,2-f][1,4]oxazepin-8-amine]	–	> 7900
28	–	–	COc1nc(Nc2ccc3c(n2)OC(c2ncc(C)s2)CN(C)C3)ccc1-c1cnn(C)c1 (stereo not shown) [Example 39, N-(6-Methoxy-5-(1-methyl-1H-pyrazol-4-yl)pyridin-2-yl)-4-methyl-2-(5-methylthiazol-2-yl)-2,3,4,5-tetrahydropyrido[3,2-f][1,4]oxazepin-8-amine]	> 25000	–
